In brackets after ≈: the same amount, converted by molar mass.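 The compound was tested at five concentrations on cells cultured in 96-well plates, with a 48-hour exposure period. GI50 marks 50% less growth. At the TGI there is no net growth.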
Columns and labels:
Assay in all cases: inhibition of tumour cell growth, NCI panel, 48 h
M14 melanoma = tested on: M14 melanoma
TK-10 renal = tested on: TK-10 renal
NCI-H226 lung = tested on: NCI-H226 lung
NCI-H23 lung = tested on: NCI-H23 lung
SF-295 CNS = tested on: SF-295 CNS
A498 renal = tested on: A498 renal
SF-539 CNS = tested on: SF-539 CNS
IGROV1 ovarian = tested on: IGROV1 ovarian
HOP-92 NSCLC = tested on: HOP-92 NSCLC
PC-3 prostate = tested on: PC-3 prostate
MDA-N = tested on: MDA-N
T-47D breast = tested on: T-47D breast

O=C(CSc1nnc(-c2ccc(N=Cc3ccc(Cl)cc3)cc2)o1)Nc1cccc(Cl)c1
TGI (M14 melanoma): > 100 µM | TGI (TK-10 renal): > 100 µM | TGI (NCI-H226 lung): > 100 µM | TGI (NCI-H23 lung): > 100 µM | TGI (SF-295 CNS): > 100 µM

COc1cc2c(cc1O)C(C)Cc1cc3c(cc1N(C)CC2)OCO3 (centres undefined)
TGI (A498 renal): 39.5 µM | TGI (SF-539 CNS): 8.8 µM | TGI (M14 melanoma): 19 µM | TGI (TK-10 renal): > 91.4 µM | TGI (IGROV1 ovarian): 73.3 µM | TGI (NCI-H226 lung): 19.3 µM | TGI (HOP-92 NSCLC): 18 µM | TGI (NCI-H23 lung): 20.3 µM | TGI (SF-295 CNS): 10.3 µM

Cn1c(=O)c2nc(N3CCCCC3)cnc2n(C)c1=O
TGI (A498 renal): > 100 µM | TGI (SF-539 CNS): > 100 µM | TGI (M14 melanoma): > 100 µM | TGI (TK-10 renal): > 100 µM | TGI (IGROV1 ovarian): > 100 µM | TGI (HOP-92 NSCLC): > 100 µM | TGI (NCI-H23 lung): > 100 µM | TGI (SF-295 CNS): > 100 µM

COc1cc(/C=C(\C#N)c2ccccn2)cc(Br)c1O
TGI (SF-539 CNS): > 100 µM | TGI (M14 melanoma): > 100 µM | TGI (TK-10 renal): > 100 µM | TGI (IGROV1 ovarian): > 100 µM | TGI (PC-3 prostate): > 100 µM | TGI (MDA-N): > 100 µM | TGI (NCI-H226 lung): > 100 µM | TGI (NCI-H23 lung): > 100 µM | TGI (SF-295 CNS): 83.2 µM

CC(C)(C)NC1C2CCC(C)(C1O)C2(C)C (centres undefined)
TGI (A498 renal): 5.19 µM | TGI (SF-539 CNS): > 100 µM | TGI (M14 melanoma): > 100 µM | TGI (TK-10 renal): > 100 µM | TGI (IGROV1 ovarian): > 100 µM | TGI (T-47D breast): > 100 µM | TGI (PC-3 prostate): > 100 µM | TGI (NCI-H23 lung): > 100 µM | TGI (SF-295 CNS): > 100 µM

CC(C)(O)[C@H](CCO)O[Si](c1ccccc1)(c1ccccc1)C(C)(C)C
TGI (A498 renal): 30.9 µM | TGI (SF-539 CNS): 27.3 µM | TGI (M14 melanoma): 25.8 µM | TGI (TK-10 renal): 25.9 µM | TGI (IGROV1 ovarian): 25.3 µM | TGI (HOP-92 NSCLC): 23.5 µM | TGI (SF-295 CNS): 18.9 µM

CC1(C)C2CCC1(CC(=O)O)C(Cl)C2 (centres undefined)
TGI (A498 renal): > 100 µM | TGI (SF-539 CNS): > 100 µM | TGI (M14 melanoma): > 100 µM | TGI (TK-10 renal): > 100 µM | TGI (IGROV1 ovarian): > 100 µM | TGI (T-47D breast): > 100 µM | TGI (PC-3 prostate): > 100 µM | TGI (NCI-H226 lung): > 100 µM | TGI (NCI-H23 lung): > 100 µM | TGI (SF-295 CNS): > 100 µM

COc1cc2c(cc1OC)C(Cc1c3ccccc3cc3ccccc13)N(C)CC2 (centres undefined)
TGI (A498 renal): 43.6 µM | TGI (SF-539 CNS): 47.1 µM | TGI (IGROV1 ovarian): 65.4 µM | TGI (NCI-H226 lung): 60.2 µM | TGI (HOP-92 NSCLC): 35 µM | TGI (NCI-H23 lung): > 85.3 µM | TGI (SF-295 CNS): 33.8 µM

CCNCCCCNCC
TGI (A498 renal): > 3750 µM | TGI (SF-539 CNS): > 3750 µM | TGI (IGROV1 ovarian): > 3750 µM | TGI (NCI-H226 lung): > 3750 µM | TGI (HOP-92 NSCLC): > 3750 µM | TGI (NCI-H23 lung): > 3750 µM | TGI (SF-295 CNS): > 3750 µM

COC(=O)NN1C(=O)C(=P(c2ccccc2)(c2ccccc2)c2ccccc2)C(C(=O)OC)=C1C
TGI (A498 renal): > 100 µM | TGI (SF-539 CNS): > 100 µM | TGI (M14 melanoma): > 100 µM | TGI (TK-10 renal): > 100 µM | TGI (IGROV1 ovarian): > 100 µM | TGI (NCI-H226 lung): > 100 µM | TGI (HOP-92 NSCLC): 79.5 µM | TGI (NCI-H23 lung): > 100 µM | TGI (SF-295 CNS): > 100 µM

CCNCCNC(=O)c1ccc(Br)cc1
TGI (A498 renal): > 100 µM | TGI (SF-539 CNS): > 100 µM | TGI (M14 melanoma): > 100 µM | TGI (TK-10 renal): > 100 µM | TGI (IGROV1 ovarian): > 100 µM | TGI (PC-3 prostate): > 100 µM | TGI (NCI-H226 lung): > 100 µM | TGI (HOP-92 NSCLC): > 100 µM | TGI (NCI-H23 lung): > 100 µM

O=c1[nH]c(=O)n(C2CC(O)C(CO)O2)cc1C#Cc1cc(F)cc(F)c1 (centres undefined)
TGI (SF-539 CNS): > 100 µM | TGI (M14 melanoma): > 100 µM | TGI (IGROV1 ovarian): > 100 µM | TGI (NCI-H226 lung): > 100 µM | TGI (NCI-H23 lung): > 100 µM | TGI (SF-295 CNS): > 100 µM

CC[C@]12C=CCN3CCC4(c5cc([C@@]6(C(=O)OC)CC7CN(CCc8c6[nH]c6ccccc86)C[C@@H]6CCC[C@H]76)c(OC)cc5N(C)C4[C@](O)(C(=O)OC)C1OC(C)=O)C32 (some centres undefined)
TGI (A498 renal): 0.816 µM | TGI (SF-539 CNS): 0.574 µM | TGI (M14 melanoma): > 3.45 µM | TGI (TK-10 renal): > 10 µM | TGI (IGROV1 ovarian): 7.31 µM | TGI (PC-3 prostate): > 10 µM | TGI (NCI-H226 lung): 1.5 µM | TGI (HOP-92 NSCLC): > 10 µM | TGI (NCI-H23 lung): 1.42 µM | TGI (SF-295 CNS): > 3.23 µM

Cc1cc2[nH]c3c(C#N)c(-c4ccccc4)c(CN4CCOCC4)c(=O)n3c2cc1C
TGI (A498 renal): > 100 µM | TGI (SF-539 CNS): > 100 µM | TGI (M14 melanoma): > 100 µM | TGI (TK-10 renal): > 100 µM | TGI (T-47D breast): > 100 µM | TGI (PC-3 prostate): > 100 µM | TGI (MDA-N): > 100 µM | TGI (NCI-H226 lung): > 100 µM | TGI (NCI-H23 lung): > 100 µM | TGI (SF-295 CNS): > 100 µM

S=C1SC(c2ccc(Cl)cc2)(c2ccc(Cl)cc2)c2ccccc21
TGI (A498 renal): > 100 µM | TGI (SF-539 CNS): > 100 µM | TGI (M14 melanoma): > 100 µM | TGI (TK-10 renal): > 100 µM | TGI (IGROV1 ovarian): > 100 µM | TGI (PC-3 prostate): > 100 µM | TGI (MDA-N): > 100 µM | TGI (NCI-H226 lung): > 100 µM | TGI (HOP-92 NSCLC): > 100 µM | TGI (NCI-H23 lung): > 100 µM | TGI (SF-295 CNS): > 100 µM

O=C(O)CNS(=O)(=O)c1ccc(NC(=O)Nc2ccccc2)cc1
TGI (A498 renal): > 100 µM | TGI (SF-539 CNS): > 100 µM | TGI (IGROV1 ovarian): > 54.4 µM | TGI (NCI-H226 lung): > 100 µM | TGI (HOP-92 NSCLC): > 100 µM | TGI (NCI-H23 lung): > 100 µM | TGI (SF-295 CNS): > 100 µM

C/C(=N/N)c1ccc2[nH]c3c(C)cc([N+](=O)[O-])c(C)c3c2c1
TGI (SF-539 CNS): 29.3 µM | TGI (M14 melanoma): 30.4 µM | TGI (TK-10 renal): 28.4 µM | TGI (NCI-H226 lung): 29.2 µM | TGI (SF-295 CNS): 35.5 µM

O=C(c1ccccc1)c1c(CNCc2ccccc2)n(C(=O)c2ccccc2)c2ccccc12
TGI (SF-539 CNS): > 100 µM | TGI (M14 melanoma): > 100 µM | TGI (TK-10 renal): > 100 µM | TGI (IGROV1 ovarian): > 100 µM | TGI (NCI-H226 lung): > 100 µM | TGI (HOP-92 NSCLC): 82.1 µM | TGI (NCI-H23 lung): > 100 µM | TGI (SF-295 CNS): 41.7 µM

Nc1ccc(N)c2c1C(=O)c1c(N)ccc(N)c1C2=O
TGI (A498 renal): > 100 µM | TGI (SF-539 CNS): > 88.8 µM | TGI (M14 melanoma): > 100 µM | TGI (TK-10 renal): > 100 µM | TGI (IGROV1 ovarian): > 100 µM | TGI (NCI-H226 lung): 67.8 µM | TGI (HOP-92 NSCLC): > 92.3 µM | TGI (NCI-H23 lung): > 100 µM | TGI (SF-295 CNS): > 100 µM

COC(=O)[C@@H]1C[C@]2(CC=C(C)C)c3ccccc3N(S(=O)(=O)c3ccccc3)[C@@H]2N1C(=O)OC
TGI (SF-539 CNS): 86.3 µM | TGI (TK-10 renal): > 100 µM | TGI (T-47D breast): > 100 µM | TGI (PC-3 prostate): > 100 µM | TGI (MDA-N): > 100 µM | TGI (NCI-H226 lung): 89.1 µM | TGI (HOP-92 NSCLC): > 100 µM | TGI (NCI-H23 lung): > 100 µM | TGI (SF-295 CNS): > 100 µM

CCn1cnc2c(NC(C)=O)ncnc21
TGI (SF-539 CNS): > 100 µM | TGI (M14 melanoma): > 100 µM | TGI (TK-10 renal): > 100 µM | TGI (IGROV1 ovarian): > 100 µM | TGI (T-47D breast): > 100 µM | TGI (PC-3 prostate): > 100 µM | TGI (MDA-N): > 100 µM | TGI (NCI-H226 lung): > 100 µM | TGI (HOP-92 NSCLC): > 100 µM | TGI (NCI-H23 lung): > 100 µM | TGI (SF-295 CNS): > 100 µM

NC(N)=Nc1nc2ccccc2[nH]1
GI50 (A498 renal): 45.8 µg/mL (≈ 262 µM) | TGI (A498 renal): > 150 µg/mL | GI50 (SF-539 CNS): 33.7 µg/mL (≈ 192 µM) | TGI (SF-539 CNS): > 150 µg/mL | GI50 (IGROV1 ovarian): 23.7 µg/mL (≈ 135 µM) | TGI (IGROV1 ovarian): > 150 µg/mL | GI50 (NCI-H226 lung): 55.3 µg/mL (≈ 315 µM) | TGI (NCI-H226 lung): > 150 µg/mL | GI50 (HOP-92 NSCLC): 103 µg/mL (≈ 588 µM) | TGI (HOP-92 NSCLC): > 150 µg/mL | GI50 (NCI-H23 lung): 121 µg/mL (≈ 691 µM) | TGI (NCI-H23 lung): > 150 µg/mL | GI50 (SF-295 CNS): 34.4 µg/mL (≈ 197 µM) | TGI (SF-295 CNS): 111 µg/mL

CP(C)(=S)P(C)(C)=S
TGI (SF-539 CNS): > 100 µM | TGI (M14 melanoma): > 100 µM | TGI (TK-10 renal): > 100 µM | TGI (IGROV1 ovarian): > 100 µM | TGI (T-47D breast): > 100 µM | TGI (PC-3 prostate): > 100 µM | TGI (MDA-N): > 100 µM | TGI (NCI-H226 lung): > 100 µM | TGI (NCI-H23 lung): > 100 µM | TGI (SF-295 CNS): > 100 µM

— PubChem BioAssay (NCI)
